Measurements reported in US10682351B2, “Methods of administering elagolix” (AbbVie Inc., priority 2015, dated 2020).
Where two headings read alike, the source gives them in different places.

Key:
[1] = Safety in elagolix/ketoconazole interaction study (adverse events, vital signs, ECGs, laboratory tests); assay type: in vivo, human
Procedure: (§1) Each subject received elagolix 150 mg single dose alone and on the 4th day of a six-day regimen of ketoconazole 400 mg q.d.
Adverse event rates across treatment periods were 0% (elagolix alone), 82% (ketoconazole alone), and 36% (co-administration). The most common adverse event was nausea, which was noted as probably related to ketoconazole alone. […] Mean elagolix plasma concentration—time profiles for elagolix administered with ketoconazole, versus elagolix administered alone, are shown in FIG. 2.

[2] = in vivo
Procedure: This was an open-label, two-period, sequential study conducted in 12 females chosen according to the protocol selection criteria. Each subject received elagolix 150 mg single dose with and without rifampin 600 mg q.d. for 10 days. Intensive blood samples for elagolix assay were collected up to 36 hours after elagolix dosing in both periods. Safety data, including adverse event monitoring, vital signs, ECGs, and laboratory tests were collected during the study.
Values for elagolix maximum concentration (Cmax) and area-under-the-curve (AUC) were estimated using noncompartmental methods. Analysis of variance was performed to compare elagolix Cmax and AUC with and without rifampin.

[3] = Pharmacokinetic interaction between elagolix and ketoconazole (open-label, two-period, sequential study); assay type: in vivo, human; details: elagolix 150 mg single dose on 4th day of six-day ketoconazole 400 mg q.d. vs elagolix alone; healthy premenopausal females
Procedure: In a second embodiment of this invention, it was discovered that ketoconazole increased elagolix exposure levels.
as §1
Analysis of variance was performed to compare the pharmacokinetic parameters of elagolix with and without ketoconazole.

Elagolix AUC increase [3] | Elagolix Cmax increase [3] | SMILES | Adverse event rate ([1]; drug alone treatment period, elagolix 150 mg single dose or ketoconazole 400 mg q.d., healthy premenopausal females) | Vital signs, ECG or laboratory measurements [2] | Vital signs, ECG or laboratory measurements ([1]; in vivo)
– | – | CC(=O)N1CCN(c2ccc(OCC3COC(Cn4ccnc4)(c4ccc(Cl)cc4Cl)O3)cc2)CC1 (centres unmarked) [ketoconazole, Ketoconazole, reference compound] | 82% | – | –
2.2 fold | 1.8 fold | COc1cccc(-c2c(C)n(Cc3c(F)cccc3C(F)(F)F)c(=O)n(C[C@H](NCCCC(=O)[O-])c3ccccc3)c2=O)c1F.[Na+] [Elagolix, 4-((R)-2-[5-(2-fluoro-3-methoxy-phenyl)-3-(2-fluoro-6-trifluoromethyl-benzyl)-4-methyl-2,6-dioxo-3,6-dihydro-2H-pyrimidin-1-yl]-1-phenyl-ethylamino)-butyric acid sodium salt] | – | No clinically significant vital signs, ECG or laboratory measurements were observed | No clinically significant vital signs, ECG or laboratory measurements were observed
